Measurements reported in patent US6743445B2, “Low temperature coatings” (BTG International Limited, priority 1998, dated 2004).
Counter-ions that a name gives are not always drawn.

What was measured:
[1] = Influence of plasticiser type on the MFFT of Aquacoat dispersion; format: physicochemical; conditions: plasticiser added as emulsion
Description: (§1) Two different methods were used to evaluate the influence of plasticiser type, quantity and incorporation technique on the MFFT on Surelease® EA7100 and Aquacoat® ECD30. The minimum film-forming temperature (MFFT) is the lowest temperature at which the film-forming composition solidifies to form a film.
(§2) The first was by pouring the dispersions onto glass petri dishes. These dispersions were dried at ambient temperature (15-25° C.) in Class 2 cleanroom environment and inspected visually. They referred to the plasticisation level needed to form films at 20±5° C. The same numerical grading system was used to evaluate the mixed films of examples 2 to 4.
(§3) The second method determined the specific MFFT for each formulation. A MFFT bar was used. The hot water bath on one end of the MFFT bar was set at 46±1° C. and the cold water bath on the other end was set at 3±1° C. This created a temperature gradient of 32.5±1.0° C. to 12±1.0° C. across the spreading surface. The temperature gradient across the MFFT bar was allowed to equilibrate for at least two hours prior to use. The temperatures were measured at the beginning and at the end of each experiment using a Jenway 3070 digital-display thermometer. The apparatus was levelled using the adjustable support and a spirit level. The plasticised dispersion formulations were spread across the surface. Once spread, the film was allowed to form at room humidity. After the film had dried, the lowest temperature on the bar at which the film was still continuous was taken as the MFFT. If the film became discontinuous in between two temperature sampling points then the higher of the two sampled temperatures was taken to be the MFFT. All experiments were duplicated. The reported MFFT was an average of the four temperatures taken at the beginning and at the end of each duplicate experiment.
(§4) In the third technique, the required amount of plasticiser, Tween 80™ and the pseudolatex were mixed with a high speed Silverson homogeniser mixer for 3 minutes. The additional plasticiser content of compositions comprising Surelease® has between 0 and 12% by weight of the ethyl cellulose solids. For compositions comprising Aquacoat®, plasticiser contents of between 18 and 30% by weight of the ethyl cellulose solids were investigated. In all cases Tween 80™ was present in an amount of 0.01% by weight of the dispersion. The formulations were left overnight in sealed containers. Any formulations that remained foamy after overnight storage were not investigated further. Otherwise, the formulations were evaluated on the MFFT apparatus. The plasticisers used were dibutyl sebacate, triethyl citrate, triacetin, acetyl tributyl citrate, tributyl citrate, polypropylene glycol, glycerol and polyethylene glycol 400.
In the final technique, Tween 80, the plasticiser and water were premixed into a crude emulsion prior to addition to ethyl cellulose coating dispersions. A plasticiser emulsion was formed by mixing parts of plasticiser and water with 0.1% of Tween 80™ using a Silverson homogeniser mixer. The freshly mixed plasticiser emulsion was then added to the ethyl cellulose coating dispersion by magnetic stirring for 30 minutes. […] Only Aquacoat® ECD30 formulations were investigated. Aquacoat® ECD30 was plasticised with dibutyl sebacate, triethyl citrate, triacetin, acetyl tributyl citrate, tributyl citrate, polypropylene glycol, glycerol and polyethylene glycol 400. The basic formulations comprise between 18 and 36% of plasticiser by weight of solids in the dispersion and 0.1% w/w Tween 80.

[2] = Influence of plasticiser type on the MFFT of Surelease dispersion; format: physicochemical; conditions: plasticiser added by high-shear mixing
Description: as §1, §2, §3, §4

SMILES | Lowering of the MFFT of Aquacoat® [1] | Lowering of the MFFT of Surelease® [2]
CCCCOC(=O)CC(CC(=O)OCCCC)(OC(C)=O)C(=O)OCCCC [acetyl tributyl citrate] | successful in lowering the MFFT | successful in lowering the MFFT
CCCCOC(=O)CCCCCCCCC(=O)OCCCC [dibutyl sebacate] | successful in lowering the MFFT | successful in lowering the MFFT
OCC(O)CO [glycerol] | unsuccessful | unsuccessful
CC(=O)OCC(COC(C)=O)OC(C)=O [triacetin] | lowering the MFFT | –
CCCCOC(=O)CC(O)(CC(=O)OCCCC)C(=O)OCCCC [tributyl citrate] | successful in lowering the MFFT | successful in lowering the MFFT
CCOC(=O)CC(O)(CC(=O)OCC)C(=O)OCC [triethyl citrate] | lowering the MFFT | –
